Measurements published in ChEMBL document CHEMBL1201862, “PubChem BioAssay data set” (2004).
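Interpolation was linear, between the two tested concentrations surrounding the appropriate level; five concentrations were tested over 48 hours in 96-well plates. Here, GI50 denotes the concentration required for 50% inhibition of growth.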 Activity calls are given as the source filed them. Rule as the data show it: active = GI50 up to about 1.1 µM and inactive = higher.

Experiments:
Experiment in all cases: NCI-60 cell line screen, 48 h
NCI-H23 = tested on: NCI-H23
BT-549 = tested on: BT-549
UACC-62 = tested on: UACC-62
SNB-75 = tested on: SNB-75
NCI-H460 = tested on: NCI-H460
CCRF-CEM = tested on: CCRF-CEM
RXF 393 = tested on: RXF 393
UACC-257 = tested on: UACC-257
LOX IMVI = tested on: LOX IMVI
SW-620 = tested on: SW-620
CAKI-1 = tested on: CAKI-1
SK-MEL-5 = tested on: SK-MEL-5
NCI-H522 = tested on: NCI-H522
OVCAR-5 = tested on: OVCAR-5
SN12C = tested on: SN12C
Hs-578T = tested on: Hs-578T
COLO 205 = tested on: COLO 205
A549 = tested on: A549
HL-60 = tested on: HL-60
NCI-H226 = tested on: NCI-H226
OVCAR-3 = tested on: OVCAR-3
SF-295 = tested on: SF-295
SK-MEL-28 = tested on: SK-MEL-28
M14 = tested on: M14
A498 = tested on: A498
MDA-MB-231 = tested on: MDA-MB-231
Malme-3M = tested on: Malme-3M
OVCAR-4 = tested on: OVCAR-4
EKVX = tested on: EKVX
NCI/ADR-RES = tested on: NCI/ADR-RES
TK-10 = tested on: TK-10
SF-539 = tested on: SF-539
DU-145 = tested on: DU-145
HOP-92 = tested on: HOP-92
IGROV-1 = tested on: IGROV-1
SF-268 = tested on: SF-268
KM12 = tested on: KM12
U-251 = tested on: U-251
SK-MEL-2 = tested on: SK-MEL-2
ACHN = tested on: ACHN
HCC 2998 = tested on: HCC 2998
MOLT-4 = tested on: MOLT-4
OVCAR-8 = tested on: OVCAR-8
HT-29 = tested on: HT-29
SNB-19 = tested on: SNB-19
T47D = tested on: T47D
HCT-116 = tested on: HCT-116
HOP-62 = tested on: HOP-62
UO-31 = tested on: UO-31
786-0 = tested on: 786-0
HCT-15 = tested on: HCT-15
MDA-N = tested on: MDA-N
MDA-MB-435 = tested on: MDA-MB-435
MCF7 = tested on: MCF7
SK-OV-3 = tested on: SK-OV-3
RPMI-8226 = tested on: RPMI-8226
K562 = tested on: K562
PC-3 = tested on: PC-3
SR = tested on: SR

For `COc1cc(Nc2nc3cc(C(F)(F)F)ccc3nc2C(=O)O)cc(OC)c1OC`, the GI50 (NCI-H23) was 45.1 µM (inactive), the GI50 (BT-549) was 34.9 µM (inactive) and the GI50 (UACC-62) was 39.8 µM (inactive). For the same compound, the GI50 (SNB-75) was 10.6 µM (inactive), the GI50 (NCI-H460) was 58.1 µM (inactive) and the GI50 (CCRF-CEM) was 29.4 µM (inactive). For the same compound, the GI50 (RXF 393) was 28.9 µM (inactive), the GI50 (UACC-257) was > 100 µM (inactive) and the GI50 (LOX IMVI) was 32.1 µM (inactive). For the same compound, the GI50 (SW-620) was 71.9 µM (inactive), the GI50 (CAKI-1) was 30.7 µM (inactive) and the GI50 (SK-MEL-5) was 49 µM (inactive). The GI50 (NCI-H522) was 30.9 µM (inactive), the GI50 (OVCAR-5) was > 100 µM (inactive) and the GI50 (SN12C) was 51.2 µM (inactive). For the same compound, the GI50 (Hs-578T) was 31.7 µM (inactive), the GI50 (COLO 205) was 45.5 µM (inactive) and the GI50 (A549) was 64.4 µM (inactive). The GI50 (HL-60) was 55.2 µM (inactive), the GI50 (NCI-H226) was 32.9 µM (inactive) and the GI50 (OVCAR-3) was 29.7 µM (inactive). For the same compound, the GI50 (SF-295) was 27.2 µM (inactive), the GI50 (SK-MEL-28) was 69.2 µM (inactive) and the GI50 (M14) was 40.6 µM (inactive). For the same compound, the GI50 (A498) was 77.8 µM (inactive), the GI50 (MDA-MB-231) was 21.8 µM (inactive) and the GI50 (Malme-3M) was 54.1 µM (inactive). For the same compound, the GI50 (OVCAR-4) was > 100 µM (inactive), the GI50 (EKVX) was 33.3 µM (inactive) and the GI50 (NCI/ADR-RES) was 41.7 µM (inactive). For the same compound, the GI50 (TK-10) was 51.3 µM (inactive), the GI50 (SF-539) was 43.6 µM (inactive) and the GI50 (DU-145) was 35.1 µM (inactive). For the same compound, the GI50 (HOP-92) was 29.6 µM (inactive), the GI50 (IGROV-1) was 66.1 µM (inactive) and the GI50 (SF-268) was 43.9 µM (inactive). For the same compound, the GI50 (KM12) was 41.5 µM (inactive), the GI50 (U-251) was 36.6 µM (inactive) and the GI50 (SK-MEL-2) was 19.1 µM (inactive). For the same compound, the GI50 (ACHN) was 65.6 µM (inactive), the GI50 (HCC 2998) was 61 µM (inactive) and the GI50 (MOLT-4) was 39.7 µM (inactive). The GI50 (OVCAR-8) was 43.8 µM (inactive), the GI50 (HT-29) was 49.7 µM (inactive) and the GI50 (SNB-19) was 41.5 µM (inactive). The GI50 (T47D) was 22.5 µM (inactive), the GI50 (HCT-116) was 32.7 µM (inactive) and the GI50 (HOP-62) was 44.3 µM (inactive). The GI50 (UO-31) was 42.7 µM (inactive), the GI50 (786-0) was 52.8 µM (inactive) and the GI50 (HCT-15) was 39.6 µM. For the same compound, the GI50 (MDA-N) was 33.3 µM (inactive), the GI50 (MDA-MB-435) was 45.6 µM (inactive) and the GI50 (MCF7) was 66.5 µM (inactive).

In the case of `O=C(Cc1ccccc1)NN1C(=O)/C(=C\c2ccccc2)S/C1=N\c1ccccc1`, the GI50 (NCI-H23) is reported as > 100 µM (inactive), the GI50 (BT-549) is reported as > 100 µM (inactive) and the GI50 (UACC-62) is reported as > 100 µM (inactive). For the same compound, the GI50 (SNB-75) was > 100 µM (inactive), the GI50 (NCI-H460) was > 100 µM (inactive) and the GI50 (RXF 393) was > 100 µM (inactive). The GI50 (UACC-257) was > 100 µM (inactive), the GI50 (SW-620) was > 100 µM (inactive) and the GI50 (SK-MEL-5) was > 100 µM (inactive). For the same compound, the GI50 (OVCAR-5) was > 100 µM (inactive), the GI50 (SN12C) was > 100 µM (inactive) and the GI50 (Hs-578T) was > 100 µM (inactive). The GI50 (COLO 205) was > 100 µM (inactive), the GI50 (A549) was > 100 µM (inactive) and the GI50 (NCI-H226) was > 100 µM (inactive). The GI50 (OVCAR-3) was > 100 µM (inactive), the GI50 (SF-295) was > 100 µM (inactive) and the GI50 (SK-MEL-28) was > 100 µM (inactive). For the same compound, the GI50 (M14) was > 100 µM (inactive), the GI50 (A498) was > 100 µM (inactive) and the GI50 (MDA-MB-231) was > 100 µM (inactive). For the same compound, the GI50 (SK-OV-3) was > 100 µM (inactive), the GI50 (OVCAR-4) was > 100 µM (inactive) and the GI50 (EKVX) was > 100 µM (inactive). The GI50 (NCI/ADR-RES) was > 100 µM (inactive), the GI50 (TK-10) was > 100 µM (inactive) and the GI50 (SF-539) was > 100 µM (inactive). For the same compound, the GI50 (DU-145) was > 100 µM (inactive), the GI50 (HOP-92) was > 100 µM (inactive) and the GI50 (IGROV-1) was > 100 µM (inactive). For the same compound, the GI50 (SF-268) was > 100 µM (inactive), the GI50 (KM12) was > 100 µM (inactive) and the GI50 (U-251) was > 100 µM (inactive). The GI50 (SK-MEL-2) was > 100 µM (inactive), the GI50 (ACHN) was > 100 µM (inactive) and the GI50 (HCC 2998) was > 100 µM (inactive). For the same compound, the GI50 (MOLT-4) was > 100 µM (inactive), the GI50 (OVCAR-8) was > 100 µM (inactive) and the GI50 (HT-29) was > 100 µM (inactive). The GI50 (SNB-19) was > 100 µM (inactive), the GI50 (T47D) was > 100 µM (inactive) and the GI50 (HCT-116) was > 100 µM (inactive). The GI50 (HOP-62) was > 100 µM (inactive), the GI50 (UO-31) was > 100 µM (inactive) and the GI50 (786-0) was > 100 µM (inactive). For the same compound, the GI50 (HCT-15) was greater than 100 µM, the GI50 (MDA-N) was > 100 µM (inactive) and the GI50 (MDA-MB-435) was > 100 µM (inactive). For the same compound, the GI50 (MCF7) was > 100 µM (inactive).

For `CN1C(=O)C2C(=O)N(Cc3ccccc3)CC(=O)N2c2cccnc21` (configuration not stated), the GI50 (NCI-H23) was > 100 µM (inactive), the GI50 (BT-549) was > 100 µM (inactive) and the GI50 (UACC-62) was > 100 µM (inactive). For the same compound, the GI50 (SNB-75) was > 100 µM (inactive), the GI50 (NCI-H460) was > 100 µM (inactive) and the GI50 (RPMI-8226) was > 100 µM (inactive). The GI50 (CCRF-CEM) was > 100 µM (inactive), the GI50 (RXF 393) was > 100 µM (inactive) and the GI50 (UACC-257) was > 100 µM (inactive). The GI50 (LOX IMVI) was > 100 µM (inactive), the GI50 (CAKI-1) was > 100 µM (inactive) and the GI50 (SK-MEL-5) was > 100 µM (inactive). For the same compound, the GI50 (NCI-H522) was > 100 µM (inactive), the GI50 (OVCAR-5) was > 100 µM (inactive) and the GI50 (Hs-578T) was > 100 µM (inactive). For the same compound, the GI50 (COLO 205) was > 100 µM (inactive), the GI50 (A549) was > 100 µM (inactive) and the GI50 (HL-60) was > 100 µM (inactive). The GI50 (NCI-H226) was > 100 µM (inactive), the GI50 (OVCAR-3) was > 100 µM (inactive) and the GI50 (SF-295) was > 100 µM (inactive). The GI50 (K562) was > 100 µM (inactive), the GI50 (M14) was > 100 µM (inactive) and the GI50 (A498) was > 100 µM (inactive). For the same compound, the GI50 (MDA-MB-231) was > 100 µM (inactive), the GI50 (Malme-3M) was 70.5 µM (inactive) and the GI50 (SK-OV-3) was > 100 µM (inactive). The GI50 (OVCAR-4) was > 100 µM (inactive), the GI50 (EKVX) was > 100 µM (inactive) and the GI50 (NCI/ADR-RES) was > 100 µM (inactive). For the same compound, the GI50 (TK-10) was > 100 µM (inactive), the GI50 (SF-539) was > 100 µM (inactive) and the GI50 (HOP-92) was > 100 µM (inactive). For the same compound, the GI50 (IGROV-1) was > 100 µM (inactive), the GI50 (SF-268) was > 100 µM (inactive) and the GI50 (KM12) was > 100 µM (inactive). The GI50 (U-251) was > 100 µM (inactive), the GI50 (SK-MEL-2) was > 100 µM (inactive) and the GI50 (ACHN) was > 100 µM (inactive). For the same compound, the GI50 (MOLT-4) was > 100 µM (inactive), the GI50 (OVCAR-8) was > 100 µM (inactive) and the GI50 (HT-29) was > 100 µM (inactive). The GI50 (PC-3) was > 100 µM (inactive), the GI50 (SNB-19) was > 100 µM (inactive) and the GI50 (T47D) was > 100 µM (inactive). The GI50 (HCT-116) was > 100 µM (inactive), the GI50 (HOP-62) was > 100 µM (inactive) and the GI50 (UO-31) was > 100 µM (inactive). The GI50 (786-0) was > 100 µM (inactive), the GI50 (HCT-15) was greater than 100 µM and the GI50 (MDA-N) was > 100 µM (inactive). For the same compound, the GI50 (MDA-MB-435) was > 100 µM (inactive), the GI50 (MCF7) was > 100 µM (inactive) and the GI50 (SR) was > 100 µM (inactive).
